Reference: paper PMC2680961, “Homologous desensitization of signalling by the alpha (α) isoform of the human thromboxane A2 receptor: A specific role for nitric oxide signalling” (Biochimica et Biophysica Acta, 2007)
Residue numbers refer to the chain shown, from its start.

Key:
TPα^S239A = target: T1, TPα^S239A (Homo sapiens, UniProt P21731, S239A); experiment: Intracellular calcium mobilization, HEK.TPα^S239A cells; assay type: cell-based
T1 construct: expressed in transfected cells
T1 sequence (P21731 1-343 S239A): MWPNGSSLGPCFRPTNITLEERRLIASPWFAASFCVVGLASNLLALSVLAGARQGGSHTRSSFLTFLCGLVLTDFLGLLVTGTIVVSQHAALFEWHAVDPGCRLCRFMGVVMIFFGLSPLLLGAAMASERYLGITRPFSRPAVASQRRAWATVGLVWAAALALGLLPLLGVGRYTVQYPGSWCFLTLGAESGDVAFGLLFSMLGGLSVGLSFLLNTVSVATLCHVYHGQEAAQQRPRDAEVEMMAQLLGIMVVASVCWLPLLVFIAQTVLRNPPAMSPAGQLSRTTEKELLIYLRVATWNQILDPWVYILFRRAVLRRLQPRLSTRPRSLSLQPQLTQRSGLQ
Procedure: Measurement of intracellular calcium mobilization ([Ca^2+]i) in FURA2/AM preloaded HEK 293 cell lines (2 × 10^6 cells/dish), each transiently co-transfected with pADVA (10 μg), and pCMV:Gαq (25 μg), was carried out as previously described. To investigate the effect of GRK2/βARK1 on TP-mediated [Ca^2+]i mobilization, HEK.TPα or HEK.TPβ cells (2 × 10^6 cells/dish) were co-transfected with pADVA (10 μg), pCMV:Gαq (25 μg) along with pRK5:βARK1^495–689 (25 μg), encoding a dominant negative form of GRK2/βARK1[39]. Approximately 48 h post-transfection, cells were harvested by scraping, washed twice in ice-cold PBS and resuspended in HBSSHB (modified Ca^2+/Mg^2+-free Hank's buffered salt solution, containing […], pH 7.67, 0.1% bovine serum albumin (BSA)) buffer at 10^7 cells/ml and incubated in the dark with 5 μM FURA2/AM for 45 min at 37 °C. Cells were collected by centrifugation (900×g, 5 min), washed once in an equal volume of HBSSHB, and were finally resuspended in HBSSHB buffer at 10^7 cells/ml and kept at room temperature in the dark for 40 min. For each measurement of [Ca^2+]i mobilization, aliquots of cells were diluted to 0.825 × 10^6 cells/ml in HBSSHB, 1 mM CaCl2 and FURA2 fluorescence was recorded (2 ml aliquots of cells) at 37^ °C with gentle stirring with a Perkin Elmer-Cetus LS50-B spectrofluorometer at excitation wavelengths of 340 nm and 380 nm and emission wavelength of 510 nm, respectively.
Cells were stimulated with the TP agonist U46619 (1 μM) and changes in [Ca^2+]i mobilization were monitored as a function of time. To assess agonist-mediated homologous desensitization, cells (0.825 × 10^6 cells/ml; 2 ml per assay) were stimulated with 1 μM U46619 (Primary stimulation) or, as a control, with the vehicle for 4 min; thereafter, cells were collected by centrifugation (900×g, 5 min); were washed twice in 2 ml HBSSHB, 1 mM CaCl2; and finally resuspended in 2 ml HBSSHB,1 mM CaCl2 and were left to recover over various time intervals (ranging from 0 to 60 min); thereafter, cells re-stimulated with 1 μM U46619 (Secondary stimulation) and changes in [Ca^2+]i mobilization were monitored as a function of time. […]
The vehicle had no effect on U46619-mediated [Ca^2+]i mobilization. Calibration of the signal was performed in each sample by adding 0.2% Triton X-100 to obtain the maximal fluorescence ratio (Rmax) and then 1 mM EGTA to obtain the minimal fluorescence ratio (Rmin). […] Changes in [Ca^2+]i mobilization were determined by measuring peak rises in [Ca^2+]i mobilized (Δ[Ca^2+]i) and were calculated as mean changes in Δ[Ca^2+]i ± S.E.M. (nM).

TPα^S331A = target: T2, TPα^S331A (Homo sapiens, UniProt P21731, S331A); experiment: Agonist-mediated TP phosphorylation in whole cells, HEK.TPα^S331A; assay type: cell-based; conditions: 1 μM U46619 10 min
T2 construct: expressed in transfected cells
T2 sequence (P21731 1-343 S331A): T1 sequence (P21731 1-343 S239A) with A239S, S331A
Procedure: Agonist-mediated TP phosphorylation in whole cells (1.8–2 × 10^6 cells/10 cm dish) was performed essentially as previously described. Briefly, cells were transiently co-transfected with pADVA (10 μg), pCMV:Gαq (25 μg) plus pcDNA:βArrestin2 (25 μg) approximately 48 h prior to labelling. Thereafter, cells were washed once in phosphate-free DMEM, 10% dialysed FBS and were metabolically labelled for 60 min in the same medium (2 ml/10 cm dish) containing 100 μCi/ml [^32P] orthophosphate (8000–9000 Ci/mmol) at 37 °C, 5% CO2. Where appropriate, the PKG kinase inhibitor KT 5823 (50 nM) or its vehicle was added during the labelling period. Thereafter, U46619 (1 μM) or an equivalent volume of vehicle (0.01% ethanol in HBS; 20 μl) were added and cells were incubated for 10 min at 37 °C, 5% CO2. Reactions were terminated by transferring the dishes to ice and aspirating the labelled medium and HA-epitope tagged TP receptors were processed and immunoprecipitated using the anti-HA 101R antibody as previously described. Electroblots were then exposed to Xomat XAR (Kodak) film to detect ^32P-labelled proteins. Thereafter, blots were subject to phosphorimage analysis, and the intensities of agonist-induced phosphorylation were expressed in arbitrary units relative to basal (vehicle-stimulated) levels. In parallel experiments, cells were incubated under identical conditions in the absence of [^32P] orthophosphate; HA-tagged TP receptors were immunoprecipitated from the same cell lines using the anti-HA 101R antibody and immunoblots were screened using the anti-HA 3F10 horseradish peroxidase-conjugated antibody.

For `CCCCC[C@H](O)/C=C/[C@@H]1[C@@H](C/C=C\CCCC(=O)O)[C@H]2CO[C@@H]1C2` [U46619], the “Δ[Ca2+]i, U46619-induced” value (TPα^S239A; + GRK^DN, primary 1 μM U46619) was 180 ± 9 nM, the “Δ[Ca2+]i, U46619-induced” value (TPα^S239A; + GRK^DN, secondary 1 μM U46619 at 15 min) was 0 nM and the “Δ[Ca2+]i, U46619-induced” value (TPα^S239A; − GRK^DN, primary 1 μM U46619) was 176 ± 10.3 nM. The “Δ[Ca2+]i, U46619-induced” value (TPα^S239A; − GRK^DN, secondary 1 μM U46619 at 15 min) was 0 nM and the “U46619-mediated TPα^S331A phosphorylation relative to basal (vehicle)” value (TPα^S331A) was 2 fold.
